Results from ChEMBL document CHEMBL1201862, “PubChem BioAssay data set” (2004).
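Tested at 5 concentrations; 48 h exposure; 96-well plates; endpoints linearly interpolated, else capped at highest concentration. The concentration for 50% growth inhibition is given as GI50.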 Activity calls are given as the source filed them. No stated cut-off is given here; in the data, active = GI50 up to about 1.1 µM and inactive = higher.

Legend:
Assay in all cases: DTP human tumour cell line panel, 48 h
A498 = test system: A498
COLO 205 = test system: COLO 205
HL-60 = test system: HL-60
K562 = test system: K562
LOX IMVI = test system: LOX IMVI
MCF7 = test system: MCF7
MDA-MB-231 = test system: MDA-MB-231
MDA-N = test system: MDA-N
Malme-3M = test system: Malme-3M
NCI-H226 = test system: NCI-H226
NCI-H23 = test system: NCI-H23
NCI-H522 = test system: NCI-H522
OVCAR-4 = test system: OVCAR-4
OVCAR-8 = test system: OVCAR-8
SF-268 = test system: SF-268
SNB-19 = test system: SNB-19
SR = test system: SR
TK-10 = test system: TK-10
UACC-62 = test system: UACC-62
UO-31 = test system: UO-31

| Structure (SMILES) | GI50 (A498) | GI50 (COLO 205) | GI50 (HL-60) | GI50 (K562) | GI50 (LOX IMVI) | GI50 (MCF7) | GI50 (MDA-MB-231) | GI50 (MDA-N) | GI50 (Malme-3M) | GI50 (NCI-H226) | GI50 (NCI-H23) | GI50 (NCI-H522) | GI50 (OVCAR-4) | GI50 (OVCAR-8) | GI50 (SF-268) | GI50 (SNB-19) | GI50 (SR) | GI50 (TK-10) | GI50 (UACC-62) | GI50 (UO-31) |
| --- | --- | --- | --- | --- | --- | --- | --- | --- | --- | --- | --- | --- | --- | --- | --- | --- | --- | --- | --- | --- |
| OCCCSCCO | > 100 µM (inactive) | > 100 µM (inactive) | > 100 µM (inactive) | > 100 µM (inactive) | > 100 µM (inactive) | > 100 µM (inactive) | > 100 µM (inactive) | > 100 µM (inactive) | > 100 µM (inactive) | > 100 µM (inactive) | > 100 µM (inactive) | > 100 µM (inactive) | > 100 µM (inactive) | > 100 µM (inactive) | > 100 µM (inactive) | > 100 µM (inactive) | > 100 µM (inactive) | > 100 µM (inactive) | > 100 µM (inactive) | > 100 µM (inactive) |
| C=C1C[C@@H]2O[C@H]3[C@H]4[C@@H](C[C@@H](C)[C@@H](OC(C)=O)[C@H]42)[C@@H](C)CO[C@@]3(C)[C@H](OC(C)=O)C[C@H]1O | > 100 µM (inactive) | 88.1 µM (inactive) | 16.9 µM (inactive) | 25.7 µM (inactive) | 17.1 µM (inactive) | 84.5 µM (inactive) | > 100 µM (inactive) | 40.5 µM (inactive) | > 100 µM (inactive) | > 100 µM (inactive) | > 100 µM (inactive) | 48 µM (inactive) | > 100 µM (inactive) | 82.6 µM (inactive) | > 100 µM (inactive) | > 100 µM (inactive) | 43 µM (inactive) | > 100 µM (inactive) | > 100 µM (inactive) | 77.6 µM (inactive) |
| COc1ccc(SC(C)(SC)c2ccccn2)c(OC)n1 (stereo not given) | 53.3 µM (inactive) | 31.6 µM (inactive) | 3.24 µM (inactive) | 51.4 µM (inactive) | 72.1 µM (inactive) | 60.1 µM (inactive) | > 100 µM (inactive) | 84.1 µM (inactive) | 71.1 µM (inactive) | 42.5 µM (inactive) | 35.4 µM (inactive) | 36.3 µM (inactive) | 83.4 µM (inactive) | 75.7 µM (inactive) | > 100 µM (inactive) | > 100 µM (inactive) | 47.2 µM (inactive) | > 100 µM (inactive) | 87.3 µM (inactive) | > 100 µM (inactive) |
| C=CCCCCCCCCCOC1C=CC(OC(C)=O)C(COC(C)=O)O1 (stereo not given) | > 100 µM (inactive) | 51.6 µM (inactive) | 24.2 µM (inactive) | 1.99 µM (inactive) | 34.2 µM (inactive) | 38.8 µM (inactive) | > 100 µM (inactive) | 44.3 µM (inactive) | 35.2 µM (inactive) | > 100 µM (inactive) | 32.1 µM (inactive) | 26.5 µM (inactive) | 45.8 µM (inactive) | 18.1 µM (inactive) | 37.3 µM (inactive) | > 100 µM (inactive) | 32.7 µM (inactive) | 44.3 µM (inactive) | 46.8 µM (inactive) | 44.8 µM (inactive) |
| O=[N+]([O-])c1ccc2c3c1[C@H]1O[C@H]1c1cccc(c1-3)[C@@H]1O[C@H]21 | 2.31 µM (inactive) | 2.05 µM (inactive) | 3.15 µM (inactive) | 0.526 µM (active) | 0.305 µM (active) | 2.11 µM (inactive) | 2.01 µM (inactive) | 2.17 µM (inactive) | 2.4 µM (inactive) | 45.9 µM (inactive) | 1.81 µM (inactive) | 1.67 µM (inactive) | 2.12 µM (inactive) | 0.91 µM (active) | 1.98 µM (inactive) | 3.54 µM (inactive) | 2.72 µM (inactive) | 2.96 µM (inactive) | 1.86 µM (inactive) | 2 µM (inactive) |
| Cn1c(=O)oc2cc(C(O)CN3CCN(Cc4ccccn4)CC3)c(Cl)cc21 (stereo not given) | > 100 µM (inactive) | > 100 µM (inactive) | > 100 µM (inactive) | > 100 µM (inactive) | > 100 µM (inactive) | > 100 µM (inactive) | > 100 µM (inactive) | > 100 µM (inactive) | > 100 µM (inactive) | > 100 µM (inactive) | > 100 µM (inactive) | > 100 µM (inactive) | > 100 µM (inactive) | > 100 µM (inactive) | > 100 µM (inactive) | > 100 µM (inactive) | 23.3 µM (inactive) | > 100 µM (inactive) | > 100 µM (inactive) | > 100 µM (inactive) |
| N=C(N)N/N=C/c1c(-c2ccc([N+](=O)[O-])cc2)nc2n1CCS2 | 20.4 µM (inactive) | 2.76 µM (inactive) | 8.36 µM (inactive) | 3.86 µM (inactive) | 8.26 µM (inactive) | 6.9 µM (inactive) | 6.18 µM (inactive) | 11.9 µM (inactive) | 17.9 µM (inactive) | 20.3 µM (inactive) | 14.3 µM (inactive) | 10.6 µM (inactive) | 7.85 µM (inactive) | 11 µM (inactive) | 9.55 µM (inactive) | 3.54 µM (inactive) | 2.25 µM (inactive) | 17.4 µM (inactive) | 16.7 µM (inactive) | 15.6 µM (inactive) |
| O=C(O)c1ccccc1CC1Cc2cc3c(cc2C1)CCC3 | > 100 µM (inactive) | > 100 µM (inactive) | > 100 µM (inactive) | > 100 µM (inactive) | > 100 µM (inactive) | > 100 µM (inactive) | > 100 µM (inactive) | > 100 µM (inactive) | > 100 µM (inactive) | > 100 µM (inactive) | 49.5 µM (inactive) | > 100 µM (inactive) | 80.5 µM (inactive) | > 100 µM (inactive) | > 100 µM (inactive) | > 100 µM (inactive) | > 100 µM (inactive) | > 100 µM (inactive) | 92.3 µM (inactive) | > 100 µM (inactive) |
| O=C(O)c1c(-c2ccccc2)c(=O)[nH]c2ccccc12 | > 100 µM (inactive) | > 100 µM (inactive) | > 100 µM (inactive) | > 100 µM (inactive) | > 100 µM (inactive) | > 100 µM (inactive) | > 100 µM (inactive) | > 100 µM (inactive) | > 100 µM (inactive) | > 100 µM (inactive) | > 100 µM (inactive) | > 100 µM (inactive) | > 100 µM (inactive) | > 100 µM (inactive) | > 100 µM (inactive) | > 100 µM (inactive) | > 100 µM (inactive) | > 100 µM (inactive) | > 100 µM (inactive) | > 100 µM (inactive) |
| CC(C)(C)OC(=O)NC1CC2(C=C(Br)C(=O)C(Br)=C2)OC1=O (stereo not given) | 23.3 µM (inactive) | 3.59 µM (inactive) | 2.47 µM (inactive) | 2.56 µM (inactive) | 13 µM (inactive) | 11.6 µM (inactive) | 17.7 µM (inactive) | 5.74 µM (inactive) | 6.24 µM (inactive) | 18.1 µM (inactive) | 7.85 µM (inactive) | 1.73 µM (inactive) | 9.84 µM (inactive) | 7.14 µM (inactive) | 17.4 µM (inactive) | 20.7 µM (inactive) | 0.955 µM (active) | 5.38 µM (inactive) | 17.6 µM (inactive) | 5.27 µM (inactive) |
